Data taken from paper PMC8880991 (eLife, 2022).
Entries after “also recorded” stand apart in the source; their conditions may differ. Where two headings read alike, the source gives them in different places.

What was measured:
[1] = test system: isolated pancreatic islets of ^EndomKir6.2^V108E mice; assay: Static incubation assay of GSIS with diazoxide; assay type: cell-based, mouse; details: 100 µM diazoxide; for Amount of insulin (secreted/total), Mean: 0 µM SpTx1, mean of 6 mice
Method: (§1) Pancreatic islets were isolated as previously described ([Doliba et al., 2017]; [Li et al., 2009]). For each experiment, one to four adult mice (8–12 weeks of age) were euthanized by exposing them to an overdose of isoflurane through inhalation and a subsequent cervical dislocation. Following a perfusion through the common bile duct with a Hank’s balanced salt solution (HBSS; GIBCO, 14175) containing collagenase XI (1–2 mg/ml, Millipore-Sigma, C7657) and 1 mM CaCl2, the pancreas was dissected and digested at 37°C for 5 or 15 min. After the digestion, the collagenase in the pancreas homogenate was removed through several washes with HBSS containing 0.3% (wt/vol) bovine serum albumin, and dissociated islets were then hand-picked into a recovery media RPMI1640 (GIBCO, 21870) with the following supplements: 10% fetal bovine serum, 2 mM GlutaMAX, 1 mM sodium pyruvate, penicillin–streptomycin, and 10 mM HEPES titrated to pH 7.4 with NaOH. For the perifusion assay, the digested pancreases samples were subject to a Ficoll gradient purification, and the islets in the enriched fraction were washed with the recovery solution before handpicking islets. During this process, the samples from four mice were pooled to ensure a sufficient number of islets were used to perform assays under compared conditions with the same population in each independent round of experiment. The handpicked islets were placed in 5% CO2 incubator at 37°C to rest overnight prior to the static incubation assay or 2 days prior to the perifusion assay.
For insulin secretion in each independent static incubation assays, pancreatic islets from one mouse (8–12 weeks of age) were used as follows. […] Washed islets were equilibrated in the final wash step for 1 hr at 5% CO2 and 37°C. Using a previous study as reference ([Remedi et al., 2009]) and on the basis of the amount of insulin secretion and the sensitivity of insulin assay, we chose to use 5–10 islets in each assay. […]

[2] = test system: isolated pancreatic islets of ^EndomKir6.2^V108E mice; assay type: cell-based, mouse
Method: as §1
For each perifusion experiment ([Doliba et al., 2017]), pancreatic islets from four mice (8–12 weeks of age) were used in the following manner. […] At the end of each experiment, the islets were recovered and placed in acidified ethanol to extract total insulin content as described above. Insulin in the samples was assayed using an insulin-specific radioimmunoassay kit (RI-13K, Millipore). For each condition, the study was performed three to six times. […] No experiments were excluded.

[3] = test system: β cells in isolated pancreatic islets from wild-type mice; assay: Membrane potential (Vm), perforated whole-cell patch clamp; assay type: cell-based, mouse
Method: (§2) Electrophysiological membrane potential (Vm) measurements from individual cells in isolated but intact islets cultured on glass coverslips were performed using the perforated whole-cell patch-clamp method as described ([Yang et al., 2021]). Wax-coated electrodes (G85150T, Warner) were back filled with the intracellular solution containing (in mM): 76 K2SO4, 10 KCl, 10 NaCl, 6 MgCl2, 30 mannitol, 30 HEPES, where pH was titrated to 7.2 at 35°C with N-methyl-d-glucamine (NMG). The tip of the pipette was filled with this solution and the remainder was back filled with the same solution plus β-escin (6 or 8 µM). The free Mg^2+ concentration of this solution, taking the divalent cation-chelating action of SO4^2− into consideration, is estimated to be about 2 mM. The extracellular solution contained (in mM): 135 NaCl, 4 KCl, 2 CaCl2, 2 MgCl2, 10 HEPES, where pH was titrated to 7.4 at 35°C with NMG. Glucose was added to this solution as required and the osmolarity was adjusted to ~300 mOsm with mannitol. All salts were from Millipore-Sigma. Using the solutions described above, the initial input resistance of the electrode was typically 4–8 MΩ. The electrophysiological recordings were performed under a continuous perfusion condition, 0.3–0.4 ml/min (Instech), at ~35°C (TC-124A and TC-344B Warner). Islets were equilibrated in the recording chamber for 10–15 min before measurements were made. Adequate whole-cell access was achieved typically within 5–10 min.
(§3) The output of the patch-clamp amplifier (Axopatch 200B, Molecular Devices) was digitized at 2 kHz and stored for later analysis using Igor Pro (v8 or v9, Wavemetrics). The liquid junction potential has been subtracted from the results. To estimate the average Vm values under different conditions, the Vm traces were digitally Gaussian filtered at 0.1 Hz and the filtered data points in the last 50 s of a segment of interest were averaged. The filtered traces are superimposed on the illustrative original traces in the figures where appropriate. The variations in data values reflected both biological variability and technical errors (Figures 2D–F–6D–F). No data, which were successfully recorded over sufficient durations that allowed for adequate examination the membrane potential under the various specified conditions, were excluded.

[4] = test system: β cells in isolated pancreatic islets from ^EndomKir6.2^V108E mice; assay: as above; assay type: cell-based, mouse; details: glibenclamide; nominal glucose-free condition
Method: as §2, §3

wild-type mice = assay: Blood glucose monitoring of overnight-fasted mice; assay type: in vivo, mouse; details: glibenclamide 40 mg/kg body weight, single intraperitoneal application; end of 2-hr observation period
Method: We evaluated the blood glucose levels of tested mice (8–12 weeks of age) using a digital glucometer (Clarity Diagnostics, BG1000). Induced diabetic mice were tested daily starting from the day after the final administration of tamoxifen until their blood glucose levels reached above 600 mg/dl. Following overnight (16 hr) fasting, blood glucose monitoring and plasma collection were then performed using specified mouse lines at designated time points over a 2-hr observation period in the next morning. […] At each given time point, the glucose level of a blood drop obtained from the cut tail tip was measured twice using a glucometer. For any case where the level was above 600 mg/dl, the blood sample was diluted by an equal volume of the phosphate-buffer solution titrated to pH 7.3 before the glucose level was remeasured for two times. Additionally, four to five drops (~12 μl) of tail vein blood were collected at individual specified time points into a tube containing K2EDTA (1.5 mg/ml blood) and centrifuged at 2000 × g for 5 min at 4°C. 5 μl of the resulting plasma was frozen in liquid nitrogen, stored at −20°C, and assayed using a colorimetric insulin-detecting ELISA kit (CrystalChem, 90080) within a week. Mice were grouped according to genotypes. Using a previous study as reference ([Remedi et al., 2009]), we determined the number of mice for individual groups. […]

[5] = test system: ^Rosa26mKir6.2^NDM-V108E mice; assay: Blood glucose monitoring of overnight-fasted diabetic mice; assay type: in vivo, mouse; details: glibenclamide 40 mg/kg, single bolus
Source text: (§4) In ^Rosa26mKir6.2^NDM and ^Rosa26mKir6.2^NDM-V108E mice, the expression of mutant Kir6.2 activity occurred in the pancreas upon the excision of the Neo/WSS cassette by the tamoxifen-dependent Cre recombinase ([Remedi et al., 2009]). Exposure to tamoxifen permitted the translocation of Cre recombinase from the cytoplasm to the nucleus in order to perform the excision between loxP sites within the targeted Rosa26 locus. To induce the expression of mutant Kir6.2 activity and consequently the diabetic phenotype in these mutant mice (8–12 weeks of age), corn oil containing tamoxifen (75 mg/kg body weight; prepared as described below) was injected intraperitoneally for five consecutive days. Injection sites were sealed with a tissue adhesive (3M Vetbond) to prevent leakage of the injected liquid.
(§5) We evaluated the blood glucose levels of tested mice (8–12 weeks of age) using a digital glucometer (Clarity Diagnostics, BG1000). Induced diabetic mice were tested daily starting from the day after the final administration of tamoxifen until their blood glucose levels reached above 600 mg/dl. […] At each given time point, the glucose level of a blood drop obtained from the cut tail tip was measured twice using a glucometer. […]

[6] = test system: ^Rosa26mKir6.2^NDM-V108E mice; assay: Plasma insulin assay (ELISA); assay type: in vivo, mouse; details: glibenclamide 40 mg/kg, single bolus
Source text: as §4, §5

`CC1=NS(=O)(=O)c2cc(Cl)ccc2N1` [diazoxide] was tested, and the “effect on insulin secretion” value ([1]; 16.7 mM glucose) was “lowered the insulin secretion in 16.7 mM glucose to the baseline level”, the “Amount of insulin (secreted/total), Mean” value ([1]; 3 mM glucose) was 0.2568 and the “Amount of insulin (secreted/total), Mean” value ([1]; 16.7 mM glucose) was 0.2327.
In the case of `COc1ccc(Cl)cc1C(=O)NCCc1ccc(S(=O)(=O)NC(=O)NC2CCCCC2)cc1` [glibenclamide], the “insulin secretion after removal of inhibitor and return to 3 mM glucose” value ([2]; 1 μM glibenclamide) is reported as “the elevated insulin secretion largely persisted”, the “effect on insulin secretion” value ([2]; 1 μM glibenclamide with glucose raised from 3 to 10 mM) is reported as “yielded insulin secretion much greater than that from elevated glucose alone” and the “insulin secretion in nonstimulating glucose (primary secretagogue)” value ([2]; 1 μM glibenclamide, 3 mM glucose, added 10 min before raising glucose) is reported as “triggered sizable secretion of insulin; also recorded: stimulated sizable secretion of insulin”. For the same compound, the “effect on insulin secretion” value ([2]; 1 μM glibenclamide, 16.7 mM glucose) was “caused much greater secretion of insulin than it did in the absence of glibenclamide”, the Vm ([3]; 0.2 uM Glibenclamide in 5 mM Glucose, islet 1) was -0.05335 V and the Vm ([3]; 0.2 uM Glibenclamide in 5 mM Glucose, islet 2) was -0.03306 V. The Vm ([3]; 0.2 uM Glibenclamide in 5 mM Glucose, islet 3) was -0.0403 V, the Vm ([3]; 0.4 uM Glibenclamide in 0 mM Glucose, islet 1) was -0.05043 V and the Vm ([3]; 0.4 uM Glibenclamide in 0 mM Glucose, islet 2) was -0.02061 V. It also gave a Vm ([3]; 0.4 uM Glibenclamide in 0 mM Glucose, islet 3) of -0.04501 V, a Vm ([3]; 0.4 uM Glibenclamide in 0 mM Glucose, islet 4) of -0.03684 V and a Vm ([3]; 0.4 uM Glibenclamide in 0 mM Glucose, islet 5) of -0.05294 V. The Vm ([3]; 0.4 uM Glibenclamide in 0 mM Glucose, islet 6) was -0.05777 V, the Vm ([3]; 0.4 uM Glibenclamide in 8 mM Glucose, islet 1) was -0.04669 V and the Vm ([3]; 0.4 uM Glibenclamide in 8 mM Glucose, islet 2) was -0.04799 V. For the same compound, the Vm ([3]; 0.4 uM Glibenclamide in 8 mM Glucose, islet 3) was -0.04272 V, the Vm ([3]; 0.4 uM Glibenclamide in 8 mM Glucose, islet 5) was -0.05311 V and the Vm ([3]; 0.4 uM Glibenclamide in 8 mM Glucose, islet 6) was -0.0321 V. The “effect on Vm” value ([3]; glibenclamide 0.4 µM, glucose 0 mM) was “dramatically depolarized Vm and triggered a train of action potentials”, the “effect on Vm” value [4] was “elicited action potentials” and the “effect on blood glucose level” value (wild-type mice) was “lowered the blood glucose level of wild-type mice by half”. The “effect on elevated blood glucose level” value [5] was “neither markedly lowered the elevated blood glucose level” and the “effect on plasma insulin” value [6] was “nor caused a rise of insulin in the plasma”.
